By IC50 is commonly meant the concentration that gives 50% inhibition.

Counter-ions that a name gives are not always drawn. Like-named read-outs stand apart in the source and are kept apart here.

From US8697687B2, “Treating diseases mediated by blockade of the epithelial sodium channel with pyrazine-2-carboxamide derivatives” (Novartis AG, priority 2007, dated 2014) come the findings set out here.

This assay concerns the target T1, epithelial sodium channel (ENaC) (Homo sapiens, UniProt P37088+P51168+P51170).
T1 construct: host or cells: primary Human Bronchial Epithelial cells (HBECs), air-liquid interface culture
T1 sequence (P37088 1-669): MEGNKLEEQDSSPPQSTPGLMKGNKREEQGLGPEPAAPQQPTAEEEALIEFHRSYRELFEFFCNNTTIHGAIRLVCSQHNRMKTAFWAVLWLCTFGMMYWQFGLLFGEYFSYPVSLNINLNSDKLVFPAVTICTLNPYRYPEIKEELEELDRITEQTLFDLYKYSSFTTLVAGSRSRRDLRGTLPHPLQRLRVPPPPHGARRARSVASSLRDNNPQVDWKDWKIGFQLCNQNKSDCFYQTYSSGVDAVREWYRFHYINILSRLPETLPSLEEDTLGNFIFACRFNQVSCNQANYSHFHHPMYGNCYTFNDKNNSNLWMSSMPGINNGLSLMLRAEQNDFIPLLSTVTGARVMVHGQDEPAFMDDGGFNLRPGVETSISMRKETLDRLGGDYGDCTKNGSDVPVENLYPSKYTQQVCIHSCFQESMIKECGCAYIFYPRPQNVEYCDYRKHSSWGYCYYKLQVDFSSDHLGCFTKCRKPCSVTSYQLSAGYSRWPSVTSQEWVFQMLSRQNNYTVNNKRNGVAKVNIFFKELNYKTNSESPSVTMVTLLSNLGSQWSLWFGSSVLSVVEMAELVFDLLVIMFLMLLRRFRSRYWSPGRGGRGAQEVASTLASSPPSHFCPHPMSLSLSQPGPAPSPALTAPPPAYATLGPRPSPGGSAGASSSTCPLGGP
T1 sequence (P51168 1-640): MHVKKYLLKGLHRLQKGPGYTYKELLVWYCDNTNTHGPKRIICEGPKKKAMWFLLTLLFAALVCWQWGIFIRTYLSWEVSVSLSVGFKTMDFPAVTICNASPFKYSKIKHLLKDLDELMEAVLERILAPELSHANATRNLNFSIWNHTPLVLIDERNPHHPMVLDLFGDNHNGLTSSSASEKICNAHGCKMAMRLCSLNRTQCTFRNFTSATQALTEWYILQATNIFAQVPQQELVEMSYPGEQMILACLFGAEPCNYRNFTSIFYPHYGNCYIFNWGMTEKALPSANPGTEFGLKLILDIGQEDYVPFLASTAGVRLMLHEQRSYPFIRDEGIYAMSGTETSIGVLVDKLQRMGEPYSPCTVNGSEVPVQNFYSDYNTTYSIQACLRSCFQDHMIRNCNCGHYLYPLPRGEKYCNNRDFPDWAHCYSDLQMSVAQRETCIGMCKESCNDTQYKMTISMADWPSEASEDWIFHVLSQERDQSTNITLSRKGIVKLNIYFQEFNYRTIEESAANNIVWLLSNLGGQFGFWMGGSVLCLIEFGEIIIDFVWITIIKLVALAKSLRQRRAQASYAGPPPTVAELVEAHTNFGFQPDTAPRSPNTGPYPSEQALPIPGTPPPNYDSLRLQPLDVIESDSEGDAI
T1 sequence (P51170 1-649): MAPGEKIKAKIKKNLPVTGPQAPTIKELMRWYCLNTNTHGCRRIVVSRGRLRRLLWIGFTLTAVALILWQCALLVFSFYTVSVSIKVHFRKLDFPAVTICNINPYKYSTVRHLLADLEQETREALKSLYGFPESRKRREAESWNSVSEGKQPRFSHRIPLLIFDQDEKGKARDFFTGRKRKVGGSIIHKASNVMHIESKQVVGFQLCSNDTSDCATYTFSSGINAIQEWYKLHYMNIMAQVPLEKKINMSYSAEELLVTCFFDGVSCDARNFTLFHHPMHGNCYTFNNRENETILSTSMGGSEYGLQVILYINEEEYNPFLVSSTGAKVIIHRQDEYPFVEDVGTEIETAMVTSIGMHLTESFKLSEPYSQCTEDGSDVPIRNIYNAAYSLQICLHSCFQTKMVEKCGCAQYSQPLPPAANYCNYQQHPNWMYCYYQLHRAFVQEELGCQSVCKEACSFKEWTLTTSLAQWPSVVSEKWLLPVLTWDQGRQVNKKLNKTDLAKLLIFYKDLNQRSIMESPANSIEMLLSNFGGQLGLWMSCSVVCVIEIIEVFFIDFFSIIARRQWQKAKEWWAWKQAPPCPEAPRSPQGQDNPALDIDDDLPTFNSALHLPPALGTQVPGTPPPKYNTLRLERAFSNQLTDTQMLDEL
The assay is described as follows: Short circuit current (ISC) measurements in Human Bronchial Epithelial cells, inhibition of amiloride-sensitive ISC. Type of assay: cell-based. On the procedure:
Compounds of formula (I) and their pharmaceutically acceptable salts, hereinafter referred to alternatively as “agents of the invention”, are useful as pharmaceuticals. In particular, the compounds have good ENaC blocker activity and may be tested in the following assays.
Human Bronchial Epithelial cells (HBECs) (Cambrex) were cultured under air-liquid interface conditions to provide a well differentiated mucociliary phenotype.
HBECs were cultured using a modification of the method described by Gray and colleagues (Gray et al., 1996). Cells were seeded in plastic T-162 flasks and were grown in bronchial epithelial cell growth medium (BEGM; Cambrex) supplemented with bovine pituitary extract (52 μg/mL), hydrocortisone (0.5 μg/mL), human recombinant epidermal growth factor (0.5 ng/mL), epinephrine (0.5 μg/mL), transferrin (10 μg/mL), insulin (5 μg/mL), retinoic acid (0.1 μg/mL), triiodothyronine ([…]), gentamycin (50 μg/mL) and amphotericin B (50 ng/mL). Medium was changed every 48 hours until cells were 90% confluent. Cells were then passaged and seeded (8.25×10^5 cells/insert) on polycarbonate Snapwell inserts (Costar) in differentiation media containing 50% DMEM in BEGM with the same supplements as above but without triiodothyronine and a final retinoic acid concentration of 50 nM (all-trans retinoic acid). Cells were maintained submerged for the first 7 days in culture, after which time they were exposed to an apical air interface for the remainder of the culture period. At this time, media was changed to DMEM:F12 media containing 2% v/v Ultroser G for the remainder of culture. Amphotericin B was removed from all media 3 feeds prior to use in the Using Chambers. Cells were used between days 7 and 21 after establishment of the apical-air interface. At all stages of culture, cells were maintained at 37° C. in 5% CO2 in an air incubator.
Short Circuit Current (ISC) Measurements
Snapwell inserts were mounted in Vertical Diffusion Chambers (Costar) and were bathed with continuously gassed Ringer solution (5% CO2 in O2; pH 7.4) maintained at 37° C. containing (in mM): 120 NaCl, 25 NaHCO3, 3.3 KH2PO4, 0.8 K2HPO4, 1.2 CaCl2, 1.2 MgCl2, and 10 glucose. The solution osmolarity was between 280 and 300 mOsmol/kg H2O for all physiological salt solutions used. Cells were voltage clamped to 0 mV (model EVC4000; WPI). RT was measured by applying a 1- or 2-mV pulse at 30-s intervals and calculating RT by Ohm's law. Data were recorded using a PowerLab workstation (ADInstruments).
Test compounds were prepared as a 10 mM stock solution in DMSO (95%). Serial 3-fold dilutions were freshly prepared in an appropriate vehicle (distilled H2O or Ringers solution). The initial concentration was added to the apical chamber as a 1000× concentrate in 5 μL, resulting in a final 1× concentration the 5 mL volume of the Ussing chamber. Subsequent additions of compound were added in a 3.3 μL volume of the 1000× serially diluted stock solution. At the completion of the concentration-response experiment, amiloride (10 μM) was added into the apical chamber to enable the total amiloride-sensitive current to be measured. An amiloride control IC50 was established at the start of each experiment.
Results are expressed as the mean % inhibition of the amiloride-sensitive ISC. Concentration-response curves were plotted and IC50 values generated using GraphPad Prism 3.02. Cell inserts were typically run in duplicate and the IC50 calculated on the mean % inhibition data.

Setting [1] is: inhibition of the amiloride-sensitive ISC, Human Bronchial Epithelial cells (HBECs) at air-liquid interface, compound added to apical chamber, read-out: IC50.

As for `Nc1nc(N)c(C(=O)/N=C2\NC[C@H](CCCNC(=O)NCc3ccccc3)N2)nc1Cl` [Example 32, 3,5-Diamino-6-chloro-pyrazine-2-carboxylic acid [(S)-4-[3-(3-benzyl-ureido)-propyl]-imidazolidin-(2E)-ylidene]-amide], under setting [1], the IC50 was found to be 18 nM.
The same measure, in the same setting: next, `CC(C)NC(=O)Nc1cccc(C(=O)N2CCC3(CC2)CN/C(=N\C(=O)c2nc(Cl)c(N)nc2N)N3)c1` [Example 43, 3,5-Diamino-6-chloro-pyrazine-2-carboxylic acid [8-[3-(3-isopropyl-ureido)-benzoyl]-1,3,8-triaza-spiro[4.5]dec-(2E)-ylidene]-amide]: 13 nM; `Nc1nc(N)c(C(=O)/N=C2\NCC3(CCN(C(=O)CCc4nc(-c5ccc(Cl)cc5)no4)CC3)N2)nc1Cl` [Example 146, 3,5-Diamino-6-chloro-pyrazine-2-carboxylic acid [8-{3-[3-(4-chlorophenyl)-[1,2,4]oxadiazol-5-yl]-propionyl}-1,3,8-triaza-spiro[4.5]dec-(2E)-ylidene-amide trifluoroacetate]: 6 nM.
Same read-out and setting: with `CC(=O)N[C@@H](Cc1ccc(OC(C)C)cc1)C(=O)N1CCC2(CC1)CN/C(=N\C(=O)c1nc(Cl)c(N)nc1N)N2` [Example 185, 3,5-Diamino-6-chloro-pyrazine-2-carboxylic acid [8-[(S)-2-acetylamino-3-(4-isopropoxy-phenyl)-propionyl]-1,3,8-triaza-spiro[4.5]dec-(2E)-ylidene]-amide] the figure was 62 nM; with `Nc1nc(N)c(C(=O)/N=C2/NC[C@@H](CCCc3ccc(OC[C@@H](O)CO)cc3)N2)nc1Cl` [Example 19, 3,5-Diamino-6-chloro-pyrazine-2-carboxylic acid [(R)-4-{3-[4-((S)-2,3-dihydroxy-propoxy)-phenyl]-propyl}-imidazolidin-(2Z)-ylidene]-amide], 18 nM.
Still for that read-out and setting: next, `Nc1nc(N)c(C(=O)/N=C2\NCC3(CCN(C(=O)c4cccc(S(=O)(=O)N5CCC(S(=O)(=O)c6ccccc6)C5)c4)CC3)N2)nc1Cl` (stereo not drawn) [Example 141, 3,5-Diamino-6-chloro-pyrazine-2-carboxylic acid [8-[3-(3-benzenesulfonyl-pyrrolidine-1-sulfonyl)-benzoyl]-1,3,8-triaza-spiro[4.5]dec-(2E)-ylidene]-amide]: 2 nM.
On to `CC(C)(C)c1ccc(OCCn2ccc3c(C(=O)N4CCC5(CC4)CN/C(=N\C(=O)c4nc(Cl)c(N)nc4N)N5)cccc32)cc1` [Example 86, 3,5-Diamino-6-chloro-pyrazine-2-carboxylic acid [8-{1-[2-(4-tert-butyl-phenoxy)-ethyl]-1H-indole-4-carbonyl}-1,3,8-triaza-spiro[4.5]dec-(2E)-ylidene]-amide], for which the IC50 is 8 nM.
With `Nc1nc(N)c(C(=O)/N=C2/NC[C@H](CCCCNC(=O)OCc3ccccc3)N2)nc1Cl` [Example 5, (4-{(S)-2-[(E)-3,5-Diamino-6-chloro-pyrazine-2-carbonylimino]-imidazolidin-4-yl}-butyl)-carbamic acid benzyl ester], the IC50 under setting [1] was found to be 65 nM.
As for `CCOC(=O)C1CCCN(S(=O)(=O)c2cccc(C(=O)N3CCC4(CC3)CN/C(=N\C(=O)c3nc(Cl)c(N)nc3N)N4)c2)C1` (stereo not drawn) [Example 128, 1-(3-{2-[(E)-3,5-Diamino-6-chloro-pyrazine-2-carbonylimino]-1,3,8-triaza-spiro[4.5]decane-8-carbonyl}-benzenesulfonyl)-piperidine-3-carboxylic acid ethyl ester], the IC50 under setting [1] was 11.5 nM.
Regarding `CC(C)NC(=O)Nc1ccc(C(=O)N2CCC3(CC2)CN/C(=N\C(=O)c2nc(Cl)c(N)nc2N)N3)cc1` [Example 64, 3,5-Diamino-6-chloro-pyrazine-2-carboxylic acid [8-[4-(3-isopropyl-ureido)-benzoyl]-1,3,8-triaza-spiro[4.5]dec-(2E)-ylidene]-amide], the IC50 under setting [1] was 25.5 nM.
With `Cc1ccc(S(=O)(=O)n2ccc(C(=O)N3CCC4(CC3)CN/C(=N\C(=O)c3nc(Cl)c(N)nc3N)N4)c2)cc1` [Example 147, 3,5-Diamino-6-chloro-pyrazine-2-carboxylic acid [8-[1-(toluene-4-sulfonyl)-1H-pyrrole-3-carbonyl]-1,3,8-triaza-spiro[4.5]dec-(2E)-ylidene]-amide], the IC50 under setting [1] stood at 16 nM.
On the same count and under the same terms, with `Cn1ccc2cc(S(=O)(=O)N3CCC4(CC3)CN/C(=N\C(=O)c3nc(Cl)c(N)nc3N)N4)ccc21` [Example 235, 3,5-Diamino-6-chloro-pyrazine-2-carboxylic acid [8-(1-methyl-1H-indole-5-sulfonyl)-1,3,8-triaza-spiro[4.5]dec-(2E)-ylidene]-amide] the figure was 364 nM.
